One assay has as its target T1, BGT1 E52A + Q299L (Homo sapiens, UniProt P48065, E52A/Q299L).
T1 construct: expressed in transfected cells; host or cells: tsA201 (transformed HEK293), transient
T1 sequence (P48065 1-614 E52A/Q299L): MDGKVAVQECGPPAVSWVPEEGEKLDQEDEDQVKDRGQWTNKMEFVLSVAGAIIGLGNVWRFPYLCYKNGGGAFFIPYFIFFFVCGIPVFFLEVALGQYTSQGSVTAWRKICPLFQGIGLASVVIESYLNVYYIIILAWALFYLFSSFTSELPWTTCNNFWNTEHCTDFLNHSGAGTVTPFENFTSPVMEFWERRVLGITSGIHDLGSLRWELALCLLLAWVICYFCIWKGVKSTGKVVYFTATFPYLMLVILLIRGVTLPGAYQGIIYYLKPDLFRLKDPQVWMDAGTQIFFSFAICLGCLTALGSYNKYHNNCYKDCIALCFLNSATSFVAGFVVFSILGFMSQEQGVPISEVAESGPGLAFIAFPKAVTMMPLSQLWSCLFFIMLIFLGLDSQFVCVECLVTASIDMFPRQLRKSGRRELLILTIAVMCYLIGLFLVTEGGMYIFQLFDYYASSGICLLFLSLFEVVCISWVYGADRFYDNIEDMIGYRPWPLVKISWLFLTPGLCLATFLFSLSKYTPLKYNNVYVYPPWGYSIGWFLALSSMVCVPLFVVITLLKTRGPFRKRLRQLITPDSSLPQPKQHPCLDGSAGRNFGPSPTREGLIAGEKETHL
Kind of assay: [3H]GABA uptake assay, transient expression in tsA201 cells. It counts as cell-based. The following applies: for IC50: BGT1 E52A + Q299L, tsA201 cells (2: only n = 2). As to the method:
(§1) The residue Q299 in human BGT1 corresponds to leucine in all other GATs (human, rat, mouse), while E52 corresponds to tyrosine in GAT1 (human, rat, mouse) but is conserved among GAT2, GAT3 and BGT1 (human, rat, mouse) (Figure 6A) ([Kickinger et al., 2019]).
(§2) The tsA201 cell line (a transformed HEK293 cell line), the Flp-In CHO cell lines stably expressing human (h) GATs and the HEK293 cell line stably expressing human α1β2γ2 GABAA receptors have been described previously and were cultured accordingly ([Al-Khawaja et al., 2014]; [Falk-Petersen et al., 2020]). The tsA201 cell line used for transient expression of hGATs was transfected with DNA constructs (8 μg per 10 cm plate) using 40 μL PolyFect transfection reagent according to the manufacturer’s protocol (Qiagen).
(§3) Briefly, cells were seeded in white 96-well plates (White Opaque Tissue Culture (TC) plated 96-well Microplate) pre-coated with PDL. Medium was removed on the following day and cells washed with 100 µL/well assay buffer (HBSS supplemented with 20 mM HEPES, 1 mM CaCl2 and 1 mM MgCl2, pH 7.4). […] The cells were washed 3 times with 100 µL/well ice-cold assay buffer, 150 µL/well MicroScint™20 was subsequently added before the plate was shaken for at least 1 h. The plate was counted in a Packard TopCounter microplate scintillation counter (PerkinElmer) for 3 min per well. […] Data presented is the pooled data of at least three independent experiments with three technical replicates if not stated otherwise in figure legends. Concentration–response curves were fitted by non-linear regression to the sigmoidal concentration-response model with GraphPad Prism (version 9.0.0, GraphPad Software, San Diego, CA, United States) as described ([Lie et al., 2020]).

The next assay concerns the target T2, BGT1 E52Y (Homo sapiens, UniProt P48065, E52Y).
T2 construct: expressed in transfected cells; host or cells: tsA201 (transformed HEK293), transient
T2 sequence (P48065 1-614 E52Y): T1 sequence (P48065 1-614 E52A/Q299L) with A52Y, L299Q
The description is as above. It counts as cell-based. The settings on record: for IC50: BGT1 E52Y, tsA201 cells. The procedure:
as §1, §2, §3

Another assay has as its target T3, BGT1 E52A (Homo sapiens, UniProt P48065, E52A).
T3 construct: expressed in transfected cells; host or cells: tsA201 (transformed HEK293), transient
T3 sequence (P48065 1-614 E52A): T1 sequence (P48065 1-614 E52A/Q299L) with L299Q
The description is as above. It counts as cell-based. The following applies: for Increase in activity compared to wildtype: BGT1 E52A vs BGT1 wt; for IC50: BGT1 E52A. As to the method: as §1, §2, §3

The next assay concerns BGT1. Set-up: method as in Kobayashi et al., 2014. The settings on record: ref Kobayashi et al., 2014, cited from earlier work.

Here are results for two molecules from PMC8476755 (Frontiers in Chemistry, 2021).

Changes are numbered by the printed parent chain. Like-named read-outs stand apart in the source and are kept apart here.

Regarding `CN[C@@]12CC[C@H](C(=O)O)[C@@H]1C2` [compound 2], the IC50 at BGT1 E52A + Q299L (read-out: IC50) is 44 µM; at BGT1 E52A + Q299L (read-out: pIC50 ± S.E.M. (converted)) it was 31.6 µM; against BGT1 E52Y, 20 µM; against BGT1 E52A (tsA201 cells), 0.12 µM. The “Increase in activity compared to wildtype” value on BGT1 E52A came to 82 times.
In the case of `N[C@@]12CC[C@H](C(=O)O)[C@@H]1C2` [bicyclo-GABA, (1S,2S,5R)-5-aminobicyclo[3.1.0]hexane-2-carboxylic acid], the IC50 is 0.59 µM with BGT1 (BGT1 inhibition); 41 µM at BGT1 E52A + Q299L (read-out: IC50); 11 µM on BGT1 E52Y; roughly 0.04 µM on BGT1 E52A; 0.04 µM against BGT1 E52A (tsA201 cells). The “Higher activity for BGT1 compared to 1” value in the assay on BGT1 was 9 times. Also, the “Higher activity for BGT1 than GAT3” value in the assay with BGT1 (subtype-selectivity BGT1 vs GAT3) is 129 times. Further, the “Decrease in inhibitory activity compared to wildtype” value at BGT1 E52A + Q299L (BGT1 Q299L + E52A vs BGT1 wt) amounted to 27 times; on BGT1 E52Y (BGT1 E52Y vs BGT1 wt), 7 times. For the same molecule, on BGT1 E52A, the “Increase in activity compared to wildtype” value is given as 38 times.
